One compound from ChEMBL document CHEMBL5696441 (Nat Chem Biol, 2011) can be followed below.

Assay [1] has as its target Casein kinase II subunit alpha' (Homo sapiens) (UniProt P19784). Briefly: Inhibition of CSNK2A2 (unknown origin) assessed as remaining activity at 1 uM by Kinome scan method relative to control.
Assay [2] deals with Epidermal growth factor receptor (Homo sapiens), P00533 [UNDEFINED MUTATION]. Briefly: Inhibition of EGFR S752-I759del mutant (unknown origin) assessed as remaining activity at 1 uM by Kinome scan method relative to control.
The target of assay [3] is Mitogen-activated protein kinase 15 (Homo sapiens) (UniProt Q8TD08). Kind of assay: Inhibition of ERK8 (unknown origin) assessed as remaining activity at 1 uM by Kinome scan method relative to control.
The target in assay [4] is Vascular endothelial growth factor receptor 3 (Homo sapiens) (UniProt P35916). Kind of assay: Inhibition of FLT4 (unknown origin) assessed as remaining activity at 1 uM by Kinome scan method relative to control.
In assay [5] the target is Tyrosine-protein kinase Fyn (Homo sapiens) (UniProt P06241). Briefly: Inhibition of FYN (unknown origin) assessed as remaining activity at 1 uM by Kinome scan method relative to control.
The target of assay [6] is Serine/threonine-protein kinase OSR1 (Homo sapiens) (UniProt O95747). Briefly: Inhibition of OSR1 (unknown origin) assessed as remaining activity at 1 uM by Kinome scan method relative to control.
The target in assay [7] is ALK tyrosine kinase receptor (Homo sapiens) (UniProt Q9UM73). Kind of assay: Inhibition of human ALK assessed as residual activity at 1 uM using PolyEY as substrate in presence of 33P-ATP by ProQinase assay relative to control.
Assay [8] deals with Mitogen-activated protein kinase kinase kinase 5 (Homo sapiens) (UniProt Q99683). Kind of assay: Inhibition of human ASK1 assessed as residual activity at 1 uM using RBER-GSK3(14-27) as substrate in presence of 33P-ATP by ProQinase assay relative to control.
Assay [9] addresses Calcium/calmodulin-dependent protein kinase kinase 1 (Homo sapiens) (UniProt Q8N5S9). Kind of assay: Inhibition of human CAMKK1 assessed as residual activity at 1 uM using RB-CTF as substrate in presence of 33P-ATP by ProQinase assay relative to control.
Assay [10] has as its target T1, Ephrin type-B receptor 4 (Homo sapiens) (UniProt P54760).
T1 sequence (whole entry): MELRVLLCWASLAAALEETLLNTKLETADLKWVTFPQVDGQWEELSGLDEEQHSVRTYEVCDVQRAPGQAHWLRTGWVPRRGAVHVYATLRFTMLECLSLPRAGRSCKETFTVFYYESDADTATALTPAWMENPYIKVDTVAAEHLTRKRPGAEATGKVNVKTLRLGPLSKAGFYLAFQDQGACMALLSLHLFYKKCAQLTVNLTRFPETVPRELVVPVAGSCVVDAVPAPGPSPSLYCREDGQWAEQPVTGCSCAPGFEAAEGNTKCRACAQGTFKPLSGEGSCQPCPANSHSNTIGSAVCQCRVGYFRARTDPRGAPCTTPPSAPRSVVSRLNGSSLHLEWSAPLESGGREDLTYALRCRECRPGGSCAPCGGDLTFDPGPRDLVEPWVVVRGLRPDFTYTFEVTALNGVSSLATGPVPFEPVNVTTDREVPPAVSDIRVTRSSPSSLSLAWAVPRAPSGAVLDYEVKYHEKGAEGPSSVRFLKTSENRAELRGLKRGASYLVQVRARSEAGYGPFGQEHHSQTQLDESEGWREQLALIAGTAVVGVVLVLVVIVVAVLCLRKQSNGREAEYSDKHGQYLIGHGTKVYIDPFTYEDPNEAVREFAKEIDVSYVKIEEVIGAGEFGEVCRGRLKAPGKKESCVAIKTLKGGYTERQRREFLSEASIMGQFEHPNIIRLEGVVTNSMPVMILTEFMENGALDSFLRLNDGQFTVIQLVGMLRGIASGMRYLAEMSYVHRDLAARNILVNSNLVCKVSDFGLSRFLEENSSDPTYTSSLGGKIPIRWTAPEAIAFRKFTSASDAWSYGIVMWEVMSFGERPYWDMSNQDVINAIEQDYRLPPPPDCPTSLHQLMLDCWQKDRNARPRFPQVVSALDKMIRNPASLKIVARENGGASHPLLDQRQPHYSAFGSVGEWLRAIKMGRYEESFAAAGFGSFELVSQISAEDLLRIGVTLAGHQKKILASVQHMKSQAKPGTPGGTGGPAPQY
Briefly: Inhibition of human EPHB4 assessed as residual activity at 1 uM using polyEY as substrate in presence of 33P-ATP by ProQinase assay relative to control.

Assay [11] deals with Leucine-rich repeat serine/threonine-protein kinase 2 (Homo sapiens) (UniProt Q5S007). Kind of assay: Inhibition of human LRRK2 assessed as residual activity at 1 uM using RBER-GSK3(14-27) as substrate in presence of 33P-ATP by ProQinase assay relative to control.
The target of assay [12] is Hepatocyte growth factor receptor (Homo sapiens) (UniProt P08581). Briefly: Inhibition of human MET assessed as residual activity at 1 uM using poly(Ala,Glu,Lys,Tyr)6:2:5:1 as substrate in presence of 33P-ATP by ProQinase assay relative to control.
Assay [13] concerns the target TGF-beta receptor type-2 (Homo sapiens) (UniProt P37173). Kind of assay: Inhibition of human TGFBR2 assessed as residual activity at 1 uM using RB-S6P as substrate in presence of 33P-ATP by ProQinase assay relative to control.

Molecules are shown by their SMILES.

Sequence of Mitogen-activated protein kinase 15 (Homo sapiens) (Q8TD08 whole entry): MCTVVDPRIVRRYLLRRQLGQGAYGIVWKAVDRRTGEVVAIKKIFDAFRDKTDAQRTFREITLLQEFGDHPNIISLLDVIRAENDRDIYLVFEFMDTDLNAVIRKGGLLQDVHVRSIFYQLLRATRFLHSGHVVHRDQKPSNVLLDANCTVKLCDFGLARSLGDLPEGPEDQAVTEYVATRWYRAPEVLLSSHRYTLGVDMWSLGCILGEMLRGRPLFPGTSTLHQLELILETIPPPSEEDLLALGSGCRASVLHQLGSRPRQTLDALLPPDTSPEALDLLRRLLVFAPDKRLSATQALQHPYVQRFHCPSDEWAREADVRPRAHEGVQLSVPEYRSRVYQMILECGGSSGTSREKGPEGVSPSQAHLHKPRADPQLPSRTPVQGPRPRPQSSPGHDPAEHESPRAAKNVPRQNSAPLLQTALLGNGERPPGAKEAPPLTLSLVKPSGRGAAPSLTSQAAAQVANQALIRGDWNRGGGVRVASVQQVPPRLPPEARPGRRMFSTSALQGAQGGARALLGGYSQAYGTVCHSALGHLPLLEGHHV
Sequence of Leucine-rich repeat serine/threonine-protein kinase 2 (Homo sapiens) (Q5S007 whole entry): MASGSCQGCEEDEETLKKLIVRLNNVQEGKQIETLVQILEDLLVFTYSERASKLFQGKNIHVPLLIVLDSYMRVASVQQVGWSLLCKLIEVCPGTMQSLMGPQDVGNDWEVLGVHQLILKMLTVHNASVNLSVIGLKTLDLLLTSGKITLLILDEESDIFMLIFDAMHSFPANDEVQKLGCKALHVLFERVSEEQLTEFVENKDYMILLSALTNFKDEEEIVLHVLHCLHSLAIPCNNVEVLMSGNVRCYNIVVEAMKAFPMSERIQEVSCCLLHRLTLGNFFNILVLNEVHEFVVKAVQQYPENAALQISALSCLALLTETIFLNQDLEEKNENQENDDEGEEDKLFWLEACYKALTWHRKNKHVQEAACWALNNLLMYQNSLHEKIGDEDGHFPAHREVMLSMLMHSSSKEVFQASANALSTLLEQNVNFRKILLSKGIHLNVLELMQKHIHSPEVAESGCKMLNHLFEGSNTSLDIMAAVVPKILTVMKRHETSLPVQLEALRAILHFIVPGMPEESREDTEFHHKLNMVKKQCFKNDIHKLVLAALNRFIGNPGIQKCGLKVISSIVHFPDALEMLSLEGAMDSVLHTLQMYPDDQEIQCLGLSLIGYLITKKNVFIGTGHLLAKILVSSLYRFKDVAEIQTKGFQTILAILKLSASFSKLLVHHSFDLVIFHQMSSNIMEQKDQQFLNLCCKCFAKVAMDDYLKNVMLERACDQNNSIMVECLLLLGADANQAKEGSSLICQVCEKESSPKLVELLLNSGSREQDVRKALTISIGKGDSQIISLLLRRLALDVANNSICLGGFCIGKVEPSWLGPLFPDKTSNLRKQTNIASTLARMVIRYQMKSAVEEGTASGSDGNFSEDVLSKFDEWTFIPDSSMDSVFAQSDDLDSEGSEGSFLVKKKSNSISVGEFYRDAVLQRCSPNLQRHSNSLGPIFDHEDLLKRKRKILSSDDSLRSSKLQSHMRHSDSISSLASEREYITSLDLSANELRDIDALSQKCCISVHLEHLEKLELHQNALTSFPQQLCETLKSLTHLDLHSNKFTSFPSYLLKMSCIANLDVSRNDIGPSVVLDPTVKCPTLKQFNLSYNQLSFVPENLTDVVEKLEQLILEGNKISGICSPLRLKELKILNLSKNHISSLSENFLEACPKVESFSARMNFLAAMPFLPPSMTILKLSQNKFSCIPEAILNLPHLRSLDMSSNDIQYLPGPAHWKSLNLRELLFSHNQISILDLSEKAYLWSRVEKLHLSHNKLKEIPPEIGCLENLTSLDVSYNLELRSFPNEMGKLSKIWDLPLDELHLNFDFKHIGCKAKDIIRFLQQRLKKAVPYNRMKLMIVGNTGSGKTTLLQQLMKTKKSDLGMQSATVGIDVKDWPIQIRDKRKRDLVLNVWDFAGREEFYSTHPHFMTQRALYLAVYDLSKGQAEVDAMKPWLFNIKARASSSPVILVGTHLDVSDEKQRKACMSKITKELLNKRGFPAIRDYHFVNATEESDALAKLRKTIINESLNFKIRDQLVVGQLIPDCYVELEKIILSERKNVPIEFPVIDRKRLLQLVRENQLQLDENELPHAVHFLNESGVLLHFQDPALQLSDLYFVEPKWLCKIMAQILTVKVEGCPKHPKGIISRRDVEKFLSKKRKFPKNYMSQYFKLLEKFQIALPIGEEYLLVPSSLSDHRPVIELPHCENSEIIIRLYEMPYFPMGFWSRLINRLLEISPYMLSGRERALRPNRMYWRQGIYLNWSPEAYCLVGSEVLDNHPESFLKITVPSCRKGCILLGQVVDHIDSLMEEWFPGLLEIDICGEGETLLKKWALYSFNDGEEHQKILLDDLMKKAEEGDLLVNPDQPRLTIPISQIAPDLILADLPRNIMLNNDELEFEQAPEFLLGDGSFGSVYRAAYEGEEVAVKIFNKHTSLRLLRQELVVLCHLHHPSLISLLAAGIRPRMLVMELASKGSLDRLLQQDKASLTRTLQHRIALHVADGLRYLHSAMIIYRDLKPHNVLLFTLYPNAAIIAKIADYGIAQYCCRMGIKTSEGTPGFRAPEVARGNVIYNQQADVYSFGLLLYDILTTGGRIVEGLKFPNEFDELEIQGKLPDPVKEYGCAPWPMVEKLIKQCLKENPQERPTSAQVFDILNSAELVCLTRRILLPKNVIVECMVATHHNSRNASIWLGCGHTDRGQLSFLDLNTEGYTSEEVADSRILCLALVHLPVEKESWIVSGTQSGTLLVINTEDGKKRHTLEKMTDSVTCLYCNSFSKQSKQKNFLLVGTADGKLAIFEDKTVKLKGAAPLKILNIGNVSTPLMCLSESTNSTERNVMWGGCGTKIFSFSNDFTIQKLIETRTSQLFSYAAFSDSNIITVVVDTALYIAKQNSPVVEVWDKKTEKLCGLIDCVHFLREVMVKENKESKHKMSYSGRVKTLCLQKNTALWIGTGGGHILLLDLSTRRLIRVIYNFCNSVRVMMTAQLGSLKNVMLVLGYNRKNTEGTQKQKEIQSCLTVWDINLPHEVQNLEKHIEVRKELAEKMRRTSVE
Sequence of Epidermal growth factor receptor (Homo sapiens), P00533 [UNDEFINED MUTATION] (P00533 whole entry, looked up, stated change not applied): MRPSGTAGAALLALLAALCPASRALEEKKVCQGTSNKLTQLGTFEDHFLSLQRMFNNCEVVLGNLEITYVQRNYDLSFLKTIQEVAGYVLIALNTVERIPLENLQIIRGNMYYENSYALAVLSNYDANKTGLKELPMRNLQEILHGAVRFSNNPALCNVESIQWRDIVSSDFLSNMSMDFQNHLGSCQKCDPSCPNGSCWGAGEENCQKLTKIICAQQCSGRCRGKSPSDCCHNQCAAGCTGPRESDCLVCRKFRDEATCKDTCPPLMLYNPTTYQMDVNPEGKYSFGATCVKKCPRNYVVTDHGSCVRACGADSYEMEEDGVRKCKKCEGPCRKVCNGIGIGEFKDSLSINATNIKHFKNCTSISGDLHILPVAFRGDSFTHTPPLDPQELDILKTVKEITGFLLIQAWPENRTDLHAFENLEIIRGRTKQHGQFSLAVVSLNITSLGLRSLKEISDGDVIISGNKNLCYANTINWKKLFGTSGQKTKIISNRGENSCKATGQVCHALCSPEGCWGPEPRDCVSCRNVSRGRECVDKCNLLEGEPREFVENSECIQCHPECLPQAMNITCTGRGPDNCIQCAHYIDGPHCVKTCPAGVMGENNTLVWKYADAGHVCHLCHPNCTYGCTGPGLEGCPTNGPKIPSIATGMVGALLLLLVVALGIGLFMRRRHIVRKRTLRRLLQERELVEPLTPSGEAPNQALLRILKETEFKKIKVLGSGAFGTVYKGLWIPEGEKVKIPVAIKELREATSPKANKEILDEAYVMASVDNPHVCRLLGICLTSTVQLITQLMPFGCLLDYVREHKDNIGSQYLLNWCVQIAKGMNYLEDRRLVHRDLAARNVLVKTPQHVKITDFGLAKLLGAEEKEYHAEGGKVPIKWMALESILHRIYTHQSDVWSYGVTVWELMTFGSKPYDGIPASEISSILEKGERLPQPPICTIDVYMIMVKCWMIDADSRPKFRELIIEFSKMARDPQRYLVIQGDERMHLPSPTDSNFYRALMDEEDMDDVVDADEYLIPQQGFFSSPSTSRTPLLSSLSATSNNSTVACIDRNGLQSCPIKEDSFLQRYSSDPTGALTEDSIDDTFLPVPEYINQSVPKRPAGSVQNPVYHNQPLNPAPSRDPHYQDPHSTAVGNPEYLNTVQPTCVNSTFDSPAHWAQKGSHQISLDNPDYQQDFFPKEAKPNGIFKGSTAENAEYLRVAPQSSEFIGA
Sequence of Serine/threonine-protein kinase OSR1 (Homo sapiens) (O95747 2-527 limits assumed): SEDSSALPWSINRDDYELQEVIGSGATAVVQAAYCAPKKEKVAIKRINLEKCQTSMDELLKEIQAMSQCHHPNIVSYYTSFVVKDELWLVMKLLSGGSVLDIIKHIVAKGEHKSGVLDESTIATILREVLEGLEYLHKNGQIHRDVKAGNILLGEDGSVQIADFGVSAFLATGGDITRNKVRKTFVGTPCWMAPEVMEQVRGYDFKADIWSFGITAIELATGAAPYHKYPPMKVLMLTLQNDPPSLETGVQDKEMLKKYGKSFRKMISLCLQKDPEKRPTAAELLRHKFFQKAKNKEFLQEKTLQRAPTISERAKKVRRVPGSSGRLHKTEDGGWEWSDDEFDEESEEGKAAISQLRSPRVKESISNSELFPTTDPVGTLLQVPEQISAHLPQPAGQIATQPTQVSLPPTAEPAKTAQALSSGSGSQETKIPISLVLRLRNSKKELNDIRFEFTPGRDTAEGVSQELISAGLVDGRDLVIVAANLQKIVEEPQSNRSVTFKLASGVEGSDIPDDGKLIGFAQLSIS

As to `O=C1c2ccc(Nc3ccc(F)cc3F)cc2CCc2ccc(OC[C@H](O)CO)cc21` [Skepinone-L], the Activity in assay [1] is 100%; in assay [2] it was 100%; in assay [3], 99%; in assay [4], 97%; in assay [5], 98%; in assay [6] it was 100%. In addition, the Activity came to 104% in assay [7]; 103% in assay [8]; 83% in assay [9]; 128% in [10]; 98% in assay [11]; 108% in [12]. The Activity in assay [13] came to 77%.
